Assays:
Format in all cases: cell-based, rabbit
[1] = test system: renal proximal tubular cells; test: Basal oxygen consumption (QO2), a measure of mitochondrial function; conditions: for repair of basal QO2: day 6 after DCVC injury
Description: Confluent monolayers of renal proximal tubular cells (day 6 after seeding) were exposed to 200 μM S-(1,2-dichlorovinyl)-L-cysteine (dissolved in water) for 1.75 hours followed by toxicant removal and addition of fresh culture media. This method produces approximately 50% cell death and loss 24 hours after the exposure. On days 1, 4, and 6 following S-(1,2-dichlorovinyl)-L-cysteine exposure, the ability of the remaining renal proximal tubular cells to regenerate and repair physiological function was monitored as described below. In some experiments, immediately after S-(1,2-dichlorovinyl)-L-cysteine exposure and after daily media change through day 6 after injury, collagen I (0, 5, 15, or 50 μg/ml), collagen IV (0, 5, 15, or 50 μg/ml), laminin (50 μg/ml), or cellular fibronectin (50 μg/ml) was added to the culture media of uninjured and S-(1,2-dichlorovinyl)-L-cysteine-injured renal proximal tubular cells grown in physiological concentrations of AscP. Exogenous collagens I and IV used in this study were triple helical and contained only α1 and α2 chains in conformations similar to those found in the renal basement membrane (3, 25). Laminin was a mixture of biologically active laminin chains found in most epithelial tissues (8, 50) and cellular fibronectin was composed of functional dimers (51).
On days 1, 4, and 6 after sublethal S-(1,2-dichlorovinyl)L-cysteine injury, renal proximal tubular cells bathed in 37° C. culture medium were gently detached from culture dishes with a rubber policeman and transferred to a 37° C. oxygen consumption (QO2) chamber. Basal renal proximal tubular cells QO2 was measured polarographically using a Clark-type electrode as described previously (36).

[2] = test system: collagen-binding integrin subunits α1, α2, and β1; test: Expression of collagen-binding integrins by flow cytometry; conditions: for expression of CBI subunits α1, α2, or β1 in sublethally injured RPTC: DCVC-injured RPTC; for expression of CBI subunits α1, α2, or β1 in sublethally injured RPTC / collagen-binding integrin α1, α2, and β1 expression in uninjured RPTC: AscP 500 μM or collagen IV 50 μg/ml
Description: CBI expression was measured by flow cytometry of renal proximal tubular cells immunostained with monoclonal antibodies to integrin subunits α1, α2, and β1. Renal proximal tubular cell monolayers were washed 3 times with ice-cold PBS, gently scraped from culture dishes into cell culture media containing 5% BSA (BSA/media), and transferred to microcentrifuge tubes. Renal proximal tubular cells were dissociated by pipeting, incubated on ice with moderate shaking for 20 minutes, centrifuged, and resuspended in 1% BSA/media containing 2 μg/ml of a specific anti-integrin antibody or non-specific IgG on ice with moderate shaking for 1 hour. After 3 washes with 1% BSA/media, renal proximal tubular cells were incubated for 30 minutes in the dark with a goat-anti mouse FITC-conjugated IgG diluted 1:100 in 1% BSA/media, followed by 3 washes with ice-cold PBS. Membrane expression of collagen-binding integrins was determined immediately by flow cytometry using a FACSCalibur four-color cell sorter/analyzer (Beckton Dickinson, San Jose, Calif.) with a blue argon laser for detection of FITC. Specific binding was calculated as total fluorescence minus that in IgG controls.

[3] = test system: renal proximal tubular cells; test: Active Na^+ transport (ouabain-sensitive QO2); conditions: for decrease in active Na^+ transport: day 1 after DCVC injury, in presence of the agent; for active Na+ transport in uninjured RPTC: days 1 or 6
Description: Confluent monolayers of renal proximal tubular cells (day 6 after seeding) were exposed to 200 μM S-(1,2-dichlorovinyl)-L-cysteine (dissolved in water) for 1.75 hours followed by toxicant removal and addition of fresh culture media. This method produces approximately 50% cell death and loss 24 hours after the exposure. In some experiments, exogenous collagen IV (50 μg/ml), collagen I (50 μg/ml), or function-stimulating antibodies to collagen-binding integrin subunits α2 or β1 (5 μg/ml) was added daily to the culture media of S-(1,2-dichlorovinyl)-L-cysteine-injured renal proximal tubular cells cultured in the absence of pharmacological concentrations of L-ascorbic acid-2-phosphate. Function-stimulating antibodies to collagen-binding integrin α1 are not commercially available at this time. On days 1 and 6 following S-(1,2-dichlorovinyl)-L-cysteine exposure, active Na^+ transport or Na^+/K^+-ATPase activity, and collagen-binding integrin expression and/or localization in the remaining sublethally injured renal proximal tubular cells was determined as described below.
Renal proximal tubular cells were gently detached from culture dishes with a rubber policeman and transferred to a 37° C. oxygen consumption (QO2) chamber. QO2 in renal proximal tubular cells was measured polarographically in the absence (basal QO2) or presence of ouabain (100 μM) (ouabain-insensitive QO2) using a Clark-type electrode as described previously (Nowak and Schnellmann, 1995). Active Na^+ transport (ouabain-sensitive QO2) was calculated by subtracting ouabain-insensitive QO2 from basal QO2. Protein concentrations were determined using the bicinchoninic acid microassay according to the manufacturer's instructions (Pierce, Rockford, Ill.).

[4] = day 6, AscP 500 μM or collagen IV 50 μg/ml

| Molecule | decrease in QO2 ([1]; one day after DCVC (200 μM), both 50 μM and 500 μM AscP) | expression of CBI subunits α1, α2, and β1 compared to controls ([2]; day 1 after DCVC) | expression of CBI subunits α1 and β1 compared to controls ([2]; day 6 after DCVC) | active Na^+ transport ([3]; day 1 following DCVC injury) | active Na^+ transport ([3]; day 6 after DCVC injury) | decrease in basal QO2 ([1]; day 1 after DCVC injury, in presence of exogenous protein) | repair of basal QO2 ([1]; 50 μg/ml) | repair of basal QO2 ([1]; 5, 15, 50 μg/ml) | basal QO2 in untreated RPTC ([1]; uninjured RPTC, days 1 or 6, exogenous protein) | expression of CBI subunits α1, α2, or β1 in sublethally injured RPTC [2] | collagen-binding integrin α1, α2, and β1 expression in uninjured RPTC [2] | decrease in active Na^+ transport [3] | active Na^+ transport in DCVC-injured RPTC [3, 4] | active Na^+ transport in DCVC-injured RPTC ([3]; day 6 after injury, 5, 15, 50 μg/ml) | active Na+ transport in uninjured RPTC [3] | QO2 ([1]; day 4 after DCVC, 50 μM or 500 μM AscP) | QO2 higher than in RPTC grown in 50 μM AscP ([1]; day 6 after DCVC, 500 μM AscP) [%] | QO2 relative to controls ([1]; day 6 after DCVC, 500 μM AscP) | basal QO2, untreated RPTC, 50 μM vs 500 μM ([1]; uninjured RPTC) |
| --- | --- | --- | --- | --- | --- | --- | --- | --- | --- | --- | --- | --- | --- | --- | --- | --- | --- | --- | --- |
| N[C@@H](CSC(Cl)=CCl)C(=O)O [S-(1,2-dichlorovinyl)-L-cysteine] | approximately 50% | unchanged | unchanged | marked inhibition | marked inhibition |  |  |  |  |  |  |  |  |  |  |  |  |  |  |
| collagen IV: Human placenta collagen IV (Sigma); triple helical, containing only α1 and α2 chains |  |  |  |  |  | approximately 50% | complete repair | recovered basal QO2 | no effect | did not affect | did not affect | approximately 80% | increase in active Na^+ transport | concentration-dependent improvement | no effect |  |  |  |  |
| O=C1O[C@H]([C@@H](O)CO)C(O)=C1OP(=O)(O)O [L-ascorbic acid-2-phosphate, L-Ascorbic acid-2-phosphate] |  |  |  |  |  |  |  |  |  | did not affect | did not affect | approximately 80% | increase in active Na^+ transport |  | no effect | remained at day 1 levels | 49 | equal to that of controls | equivalent at all time points |

Source: patent publication US7183383B2, “Uses of collagen IV” (The University of Arkansas for Medical Sciences, priority 2002, dated 2007)
